Broadly, the pIC50 is −log10 of the IC50, conventionally taken in molar units. What is called kinetic solubility is solubility judged after dilution from a stock solution rather than from solid.

Results on 6 compounds are retold here after publication PMC11951083, “Highly Specific Miniaturized Fluorescent Monoacylglycerol Lipase Probes Enable Translational Research” (Journal of the American Chemical Society, 2025).

One data set deals with T1, MAGL (Homo sapiens, UniProt Q99685).
T1 sequence (Q99685 1-303): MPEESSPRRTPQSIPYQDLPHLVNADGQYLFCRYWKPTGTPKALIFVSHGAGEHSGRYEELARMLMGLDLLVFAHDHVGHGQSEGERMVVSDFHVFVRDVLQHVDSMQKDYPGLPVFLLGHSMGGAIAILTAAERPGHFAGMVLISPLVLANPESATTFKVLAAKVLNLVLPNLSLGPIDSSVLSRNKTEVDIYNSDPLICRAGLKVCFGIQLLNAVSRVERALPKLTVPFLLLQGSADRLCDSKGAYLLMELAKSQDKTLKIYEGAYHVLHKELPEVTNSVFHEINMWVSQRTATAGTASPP
Kind of data set: Native MS (RapidFire) 2-AG substrate assay, purified human MAGL. The following applies: purified human MAGL, native MS substrate assay; IC50 of covalent inhibitors time-dependent; read-out: IC50 hMAGL. The data set is classed as biochemical. The protocol:
(§1) In vitro MAGL Inhibition Assay
(§2) Compounds were profiled for MAGL inhibitory activity by determining the enzymatic activity by following the hydrolysis of the natural substrate 2-arachidonoylglycerol (2-AG), resulting in arachidonic acid, which can be followed by mass spectrometry. The 2-AG assay was carried out in 384 well assay plates (PP, Greiner Cat# 784201) in a total volume of 20 µL. Compound dilutions were made in 100% DMSO (VWR Chemicals 23500.297) in a polypropylene plate in 3-fold dilution steps to give a final concentration range in the assay from 12.5 µM to 0.8 pM. 0.25µL compound dilutions (100% DMSO) were added to 9 µL MAGL in assay buffer (50 mM TRIS (GIBCO, 15567-027), 1 mM EDTA (Fluka, 03690-100 mL), 0.01% (v/v) Tween. After shaking, the plate was incubated for 15 min at RT. To start the reaction, 10 µL 2-arachidonoylglycerol in assay buffer was added. The final concentrations in the assay were 50 pM MAGL and 8 µM 2-arachidonoylglyerol. After shaking and 30 min incubation at RT, the reaction was quenched by the addition of 40µL of ACN containing 4µM of d8-arachidonic acid. The amount of arachidonic acid was traced by an online SPE system (Agilent Rapidfire) coupled to a triple quadrupole mass spectrometer (Agilent 6460). A C18 SPE cartridge (G9205A) was used in an ACN/water liquid setup. The mass spectrometer was operated in negative electrospray mode following the mass transitions 303.1 → 259.1 for arachidonic acid and 311.1 → 267.0 for d8-arachidonic acid. The activity of the compounds was calculated based on the ratio of intensities [arachidonic acid / d8-arachidonic acid]. The lowest IC50 value that can be determined with high accuracy is approximately 0.025 nM.

The target in another data set is T2, cMAGL (Macaca fascicularis, UniProt A0A2K5V664).
T2 sequence (A0A2K5V664 11-297): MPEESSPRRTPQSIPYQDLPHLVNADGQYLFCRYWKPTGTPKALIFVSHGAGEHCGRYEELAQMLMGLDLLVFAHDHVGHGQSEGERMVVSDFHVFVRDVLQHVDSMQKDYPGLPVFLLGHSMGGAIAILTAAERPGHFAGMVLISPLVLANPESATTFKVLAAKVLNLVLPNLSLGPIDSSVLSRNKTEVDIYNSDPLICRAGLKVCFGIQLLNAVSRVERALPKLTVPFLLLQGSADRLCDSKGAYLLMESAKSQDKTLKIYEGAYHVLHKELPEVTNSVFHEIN
The data set is described as follows: Native MS (RapidFire) 2-AG substrate assay, purified cynomolgus monkey MAGL. The data set is classed as biochemical. As for the experimental part:
as §1, §2

The target in the next data set is T3, mMAGL (Mus musculus, UniProt O35678).
T3 sequence (O35678 1-303): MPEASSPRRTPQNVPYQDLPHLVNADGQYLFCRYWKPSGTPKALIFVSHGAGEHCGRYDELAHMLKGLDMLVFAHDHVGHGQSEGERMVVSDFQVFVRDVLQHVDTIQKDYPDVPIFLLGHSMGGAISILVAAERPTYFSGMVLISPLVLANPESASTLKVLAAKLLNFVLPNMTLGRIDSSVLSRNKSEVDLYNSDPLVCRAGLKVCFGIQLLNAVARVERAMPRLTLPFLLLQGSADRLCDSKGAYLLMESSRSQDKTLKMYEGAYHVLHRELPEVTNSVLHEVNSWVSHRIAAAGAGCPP
The data set is described as follows: Native MS (RapidFire) 2-AG substrate assay, purified mouse MAGL. To be noted: purified mouse MAGL, native MS substrate assay; read-out: IC50 mMAGL. The data set is classed as biochemical. As for the experimental part: as §1, §2

Data set [1] can be described thus: High throughput kinetic solubility measurement. The data set is classed as physicochemical. To be noted: phosphate buffer, pH 6.5, aqueous buffer, kinetic from dmso stock.
The target in a further data set is T4, rMAGL (Rattus norvegicus, UniProt Q8R431).
T4 sequence (Q8R431 1-303): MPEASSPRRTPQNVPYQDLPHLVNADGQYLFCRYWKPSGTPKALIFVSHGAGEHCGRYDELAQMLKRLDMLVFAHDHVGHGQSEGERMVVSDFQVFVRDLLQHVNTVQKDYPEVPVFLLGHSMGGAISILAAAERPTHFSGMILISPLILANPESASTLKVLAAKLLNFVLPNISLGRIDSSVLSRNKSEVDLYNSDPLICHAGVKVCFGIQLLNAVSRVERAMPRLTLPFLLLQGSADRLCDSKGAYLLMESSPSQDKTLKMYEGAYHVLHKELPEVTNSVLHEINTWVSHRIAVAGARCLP
Kind of data set: Native MS (RapidFire) 2-AG substrate assay, purified rat MAGL. The data set is classed as biochemical. To be noted: for pIC50: purified rat MAGL, native MS substrate assay, read-out: IC50 rMAGL. The protocol: as §1, §2

The mark [2] stands for this setting: purified cynomolgus monkey MAGL, native MS substrate assay, read-out: IC50 cMAGL.

pIC50: −log10 of the molar value. ≈ marks a conversion by molar mass, not a printed value. Like-named read-outs stand apart in the source and are kept apart here.

Regarding `O=C(O[C@H](CO)C(F)(F)F)N1CC2(CC(CC3=C4C=CC=[N+]4[B-](F)(F)n4cccc43)C2)C1` [Compound 1], the pIC50 on MAGL is 9.55; at cMAGL (setting [2]), 9.06; at mMAGL, 9.68; at rMAGL it was 9.44. The solubility (kinetic) in data set [1] is 19 µg/mL (≈ 41.6 µM).

On to `O=C(N1CC2(CC(CC3=C4C=CC=[N+]4[B-](F)(F)n4cccc43)C2)C1)N1CC2(CC(n3cnc(C4CC4)n3)C2)C1` [Compound 5], for which the pIC50 at MAGL was 9.24; at cMAGL, 9.30; on mMAGL, 8.99; on rMAGL it was 9.01. This compound yielded a kinetic solubility in data set [1] of 46 µg/mL (≈ 86.6 µM).

For `O=C1CO[C@H]2CCN(C(=O)N3CC4(CC(CC5=C6C=CC=[N+]6[B-](F)(F)n6cccc65)C4)C3)C[C@H]2N1` [Compound 4], the negative-log IC50 (pIC50) at MAGL is 9.03; on cMAGL (setting [2]), 8.94; at mMAGL, 8.88; at rMAGL it was 8.62. For the same compound, in data set [1], the solubility (kinetic) was 112 µg/mL (≈ 232 µM). Besides, the “loss of potency against rat or cynomolgus monkey orthologs” value at rMAGL (rat or cynomolgus monkey MAGL) is “less than 4 fold”.

On to `O=C1CO[C@H]2CCN(C(=O)N3CC4(CC(CC5=C6C=CC(c7ccc[nH]7)=[N+]6[B-](F)(F)n6cccc65)C4)C3)C[C@H]2N1` [Compound 4a], for which the pIC50 is 9.85 on MAGL, 9.70 against cMAGL, 9.74 at mMAGL and 9.33 at rMAGL. Moreover, the kinetic solubility in data set [1] is less than 0.3 µg/mL.

Regarding `O=C(OC(C(F)(F)F)C(F)(F)F)N1CC2(CC(CC3=C4C=CC(c5ccc[nH]5)=[N+]4[B-](F)(F)n4cccc43)C2)C1` [Compound 2a], the negative-log IC50 (pIC50) was 9.01 on MAGL, 9.20 on cMAGL (setting [2]), 9.10 on mMAGL and 9.17 at rMAGL. The compound further registered a kinetic solubility in data set [1] of less than 1 µg/mL.

Consider `O=C(OC(C(F)(F)F)C(F)(F)F)N1CC2(CC(CC3=C4C=CC=[N+]4[B-](F)(F)n4cccc43)C2)C1` [Compound 2], for which the negative logarithm of the IC50 (pIC50) on MAGL is 9.41; on cMAGL (setting [2]) it was 9.62; at mMAGL it was 9.48; at rMAGL it was 9.70. In data set [1], this compound yielded a kinetic solubility of less than 3 µg/mL.
